# Measurements reported in patent US12201619B2, “Compounds and methods for use in the treatment of microglia-mediated disorders” (NSC Therapeutics GmbH, priority 2018, dated 2025).
# Substitutions are numbered along the chain they refer to. “Also recorded” adds a separate entry of the source.
# What was measured:
# [1] = system: human blood-derived macrophages; experiment: Cell viability (PrestoBlue) of blood-derived human macrophages; assay type: cell-based; conditions: for cell viability in regards to medium control: 0-24 h, 1-2000 μM for NSC001 and AF102B; for persistence of the cell viability effect: after 24 hours of treatment
# Description: Human blood-derived macrophages were isolated from buffy coat via standard protocols (Monocyte isolation Kit, 130091153, Miltenyi Biotec GmbH, Germany) and differentiated for 9 days in M-CSF medium (Ser. No. 12/065,074, Thermo Fisher, Switzerland,) supplemented with 125 ng/ml human GM-CSF (130093864, Miltenyi Biotec GmbH, Germany) to induce M1 macrophage differentiation. Upon differentiation, cells were harvested and re-seeded at 1 Mio cells per 24-well. […] Cell viability was detected by absorbance measurements utilizing the PrestoBlue colorimetric assay (PrestoBlue Cell Viability Reagent, A13261, Thermo Fisher, Switzerland). Cell viability was assessed directly after compound application at 0 h and after 1 h, 3 h and 24 h.
# human M1 mAChR [2] = target: T1, human M1 mAChR (Homo sapiens, UniProt P11229); experiment: Phosphoinositide (PI) hydrolysis in CHOM1 cells; assay type: cell-based; parameters: expressed in transfected cells; host or cells: CHO (Chinese Hamster Ovary) cells, CHOM1, kept under G418; conditions: for Emax at 1000 µM: read-out: PI hydrolysis maximal response relative to CCh
# T1 sequence (P11229 1-460): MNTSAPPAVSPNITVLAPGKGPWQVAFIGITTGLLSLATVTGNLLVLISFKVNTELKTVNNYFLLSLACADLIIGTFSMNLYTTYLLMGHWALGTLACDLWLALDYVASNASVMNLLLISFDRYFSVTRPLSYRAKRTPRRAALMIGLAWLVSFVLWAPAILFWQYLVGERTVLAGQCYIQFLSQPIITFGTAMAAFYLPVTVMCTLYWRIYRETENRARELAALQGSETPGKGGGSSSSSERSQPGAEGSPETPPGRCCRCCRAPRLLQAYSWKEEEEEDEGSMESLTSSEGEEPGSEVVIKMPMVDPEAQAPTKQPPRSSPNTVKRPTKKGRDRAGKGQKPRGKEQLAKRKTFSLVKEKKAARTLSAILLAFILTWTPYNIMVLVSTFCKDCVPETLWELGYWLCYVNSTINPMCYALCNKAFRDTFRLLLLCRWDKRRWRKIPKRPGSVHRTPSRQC
# Description: (§1) Rat pheochromocytoma cells (PC12) transfected with rat M1 muscarinic receptor (PC12M1) or CHOM1 cells were seeded in 24-well plates at a density of 4-8×10^5 cells/well. A day later, a fresh growth medium containing 1 μCi/ml [^3H]inositol (myo-[2-^3H(N)] 22 Ci/mmol; purchased from NEN, Boston, MA) was added for 18-24 h (overnight). Then, the medium was removed and the cells were washed twice followed by pre-incubation (10 min) with serum-free medium containing 20 mM Hepes pH 7.4 and 10 mM LiCl. […] Basal activity was determined in cells that were incubated in parallel without the tested compounds. Termination of the assay was carried out by aspirating the media and adding 0.5 ml 2% trichloroacetic acid (TCA) followed by agitating the cells in the cold for 30 min. The TCA extracts were transferred to anion-exchange columns, washed five times with 5 mM inositol, once with 5 ml 5 mM Na2B4O7 in 60 mM formic acid, and the total IPs were eluted with 3 ml 1 M NH4COOH in 0.1 M formic acid. The effluent was collected into scintillation vials and the radioactivity was measured using liquid scintillation counter, 1214 Rackbeta LKB Wallac.
# human M1 mAChR [3] = target: T1, human M1 mAChR; experiment: cell-based; conditions: for calcium mobilization response relative to CCh: CHOM1 cells, 50 μM compound
# Description: Cells were routinely cultured in Dulbecco's Modified eagle medium (Gibco, UK) supplemented with 10% fetal bovine serum (FBS), 1×MEM non-essential amino-acid, […] Glutamine, 100μ/ml Penicillin, 0.1 mg/ml Streptomycin, 25 μg/ml Amphotericin B and 100 μg/ml G418 (Biological industries, Israel). Cells were kept in a humidified atmosphere at 37° C. in 5% CO2 and were passaged twice weekly by 2.5 mg/ml trypsin-EDTA (0.02%) solution (Biological industries, Israel) and re-suspended in fresh media.
# Calcium fluorescence measurements were performed using a NOVOstar plate reader with an injector and a pipetting system (BMG Labtech, Ortenberg, Germany). At the day before the experiment Chinese Hamster Ovary (CHO) cells expressing human M1 mAChR subtypes (CHOM1) were harvested and rinsed with culture medium (see section “cell culture”, supra) without Phenol red and evenly plated into black-wall clear optical bottom 96-well plate (Nunc, Rochester NY, USA) at a density of 40,000 cells/well. Growth medium was removed and 80 μl of loading buffer, containing 2.5 mM probenecid, was carefully added (loading buffer prepared according to FLUO-4 NW calcium assay kit manual). The cell plate was incubated at 37° C. for 30 minutes; then at room temperature for an additional 30 minutes. EGTA (10 μl of 50 mM dissolved in HBSS) was added automatically to each well using the NOVOstar injector system followed by shaking of 1 minute (1 mm width, 600 rpm) and then incubated for another 10 minutes. HBSS alone or test compounds dissolved in HBSS were then added (10 μl) sequentially into separate wells using the NOVOstar robotic pipettor system. Fluorescence intensity was measured at 0.5 second intervals, for 30 second for each well, using an excitation wavelength of 485 nm (bandwidth 10 nm) and emission of 520 nm (bandwidth 10 nm), cut-off 515 nm. All assays were carried out in triplicates in three independent experiments. Competition curves and EC50 values were derived using the GraphPad Prism software program, version 3.0.
# M1 receptor = target: T2, M1 receptor (Homo sapiens, UniProt P11229); conditions: in vitro; cited from earlier work
# T2 sequence (P11229 1-460): T1 sequence (P11229 1-460)
# [4] = system: TREM2 (sTREM2, tTREM2) in primary microglia; experiment: Soluble and total TREM2 levels (ELISA) in primary microglia cultures; assay type: cell-based, mouse; conditions: for sTREM2 levels in medium: normalized to PMA 1 μM
# Description: Primary microglia were isolated from C57BL6 pups (P4-6). Mouse brains were prepared by removing the cerebellum and the meninges. Brain tissue was dissected and single cell suspension was sorted via CD11b Microbeads (Milteny Biotec) to obtain primary microglia. Cells were plated at 4×10^5 cell/ml in 24 well plates and cultured for 24 hours in DMEM supplemented with 10% FBS and 1% Penicillin/Streptomycin.
# Mouse primary microglia were prepared from mice postnatal day 4-6 according to standard protocols (Neuronal Tissue Dissociation Kit (P), 130-092-628 and CD11b Microbeads, 130-093-634; Miltenyi Biotec 5 GmbH, Germany) and seeded in 24-well plates at a density of 4×10^5 cells/well. After one day, cell medium was removed and cells were washed once with PBS. Subsequently, cell were treated with compound NSC001 (0-2000 μM) in FBS-free DMEM for 1 or 24 hours. Termination of the assay was carried out by collecting the media and concomitant concentration via centrifugal filter units (Amicon, Z648027-24EA, Sigma 10 Aldrich, Ireland). Cell lysis was performed by adding RIPA lysis buffer (RIPA buffer, R0278, Sigma-Aldrich Co LLC, USA) followed by agitating the cells at 4° C. for 30 min. Primary microglia cell lysates and concentrated cell medium were analyzed for soluble TREM2 (sTREM2; FIG. 3A,B) and total TREM2 (tTREM2; FIG. 3C,D) levels by ELISA (CSBEL024405MO, Cusabio Life Science, China).
# AD patients = conditions: cited from earlier work
# 3×Tg-AD mice = conditions: cited from earlier work
# [5] = target: T3, rat M1 muscarinic receptor (Rattus norvegicus, UniProt P08482); experiment: Phosphoinositide (PI) hydrolysis in PC12M1 cells; assay type: cell-based
# T3 construct: expressed in transfected cells; host or cells: PC12 rat pheochromocytoma cells (PC12M1)
# T3 sequence (P08482 1-460): T1 sequence (P11229 1-460) with A5V, T254S, P309S, R320K, A337G, I413V
# Description: as §1
# [6] = dry storage conditions; cited from earlier work
# [7] = 24 hours treatment, hydrochloride
# [8] = 24 hours treatment, listed as AF267B
Structure (SMILES),cell viability in regards to medium control [1],persistence of the cell viability effect [1],Emax at 1000 µM (human M1 mAChR [2]),EC50 (human M1 mAChR [3]),calcium mobilization response relative to CCh (human M1 mAChR [3]),Aβ levels (M1 receptor),Aβ-induced neurotoxicity (M1 receptor),tau hyperphosphorylation (M1 receptor),αAPPs (M1 receptor),other results
"CCCCCCCCCCCCCC(=O)O[C@@H]1[C@@H](C)[C@@]2(O)[C@@H](C=C(CO)C[C@]3(O)C(=O)C(C)=C[C@@H]23)[C@@H]2C(C)(C)[C@]12OC(C)=O [PMA, Phorbol myristate acetate]",increased,reversed to baseline,,,,,,,,
"C[C@@H]1O[C@@]2(CS1)CN1CCC2CC1.Cl (racemic) [AF102B, cis-2-Methylspiro[1,3-oxathiolane-5,3′-quinuclidine] hydrochloride, reference compound]",,persisted,43%,1680 ± 330 nM,101%,decrease,block,decrease,elevate,"sTREM2 levels in medium [4, 7]: capable of inducing sTREM2 levels; also recorded: significantly enhances; also recorded: significantly increases; cellular tTREM2 levels [4, 7]: not affected; also recorded: unaffected; also recorded: unaltered; concentration at which the compound is active ([4]; features (i) to (iii): sTREM2 secretion, calcium mobilization and/or PI hydrolysis): 10 to 100 µM; levels of Aβ in the CSF (AD patients): significantly decreased; cell viability in regards to medium control ([1]; hydrochloride): increased; also recorded: increase in viability"
"CC[C@@H]1SC2(CCN(C)CC2)NC1=O [NSC001, (S)-2-ethyl-8-methyl-1-thia-4,8-diaza-spiro[4.5]decan-3-one]",increased; also recorded: increase in viability,persisted,63 ± 1%,1840 ± 390 nM,113%,decrease,block,decrease,increase,"EC50 (human M1 mAChR [2]; CHOM1 cells): 19000 nM; spatial memory (3×Tg-AD mice): improve spatial memory; Aβ and tau pathologies (3×Tg-AD mice; hippocampus and cortex): reduced; cellular tTREM2 levels ([4]; 1 hour treatment): remained constant; also recorded: no effect; sTREM2 levels in medium ([4]; 1 hour treatment): no alteration detected; also recorded: no effect; concentration able to increase sTREM2 levels comparable to PMA ([4]; 24 h, PMA 1 μM): 1 µM; further increase in sTREM2 exceeding the levels upon PMA treatment (1 μM) ([4]; 24 h, higher concentrations 100-2000 μM): not observed; cellular tTREM2 levels ([4]; 24 hours treatment): remain constant; sTREM2 levels in medium ([4]; 24 hours treatment): significant increase; sTREM2 levels in medium [4, 8]: significantly increases; cellular tTREM2 levels [4, 8]: unaltered; cellular tTREM2 levels ([4]; 24 hours treatment, listed as NSC0001): not affected; concentration at which the activity of features (i) to (iii) is displayed ([4]; sTREM2 secretion, calcium mobilization and/or PI hydrolysis): 1 to 5 µM; PI hydrolysis / M1 mAChR activation [5]: efficacious; also recorded: efficiently induces PI hydrolysis"
CCO [Ethanol],reduced cell viability; also recorded: rapidly decreases cell viability,,,,,,,,,
CCC1SC2(CCN(C)CC2)NC1=O (stereo not shown) [Form II],,,,,,,,,,stability of the crystalline form [6]: highly stable under dry storage conditions for at least two years
